Measured values as given in ChEMBL document CHEMBL1150977, “A quantitative analysis of kinase inhibitor selectivity” (Nat Biotechnol, 2008).

Legend:
[1] = target: T1, Serine/threonine-protein kinase 3 (Homo sapiens, UniProt Q13188)
T1 sequence (Q13188 whole entry): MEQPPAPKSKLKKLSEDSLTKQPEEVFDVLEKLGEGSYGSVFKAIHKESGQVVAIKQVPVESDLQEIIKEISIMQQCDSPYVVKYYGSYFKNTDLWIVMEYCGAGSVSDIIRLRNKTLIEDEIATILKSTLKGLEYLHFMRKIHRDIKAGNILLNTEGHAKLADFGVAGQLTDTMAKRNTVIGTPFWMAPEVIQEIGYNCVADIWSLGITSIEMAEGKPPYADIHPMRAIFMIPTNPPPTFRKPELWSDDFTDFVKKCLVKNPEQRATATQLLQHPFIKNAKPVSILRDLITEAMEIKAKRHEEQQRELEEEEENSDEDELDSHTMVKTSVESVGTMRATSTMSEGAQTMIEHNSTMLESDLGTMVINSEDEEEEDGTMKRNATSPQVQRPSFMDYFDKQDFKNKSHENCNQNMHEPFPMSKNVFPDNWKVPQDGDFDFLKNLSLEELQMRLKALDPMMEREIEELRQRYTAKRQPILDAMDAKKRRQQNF

[2] = target: T2, Mitogen-activated protein kinase kinase kinase kinase 3 (Homo sapiens, UniProt Q8IVH8)
T2 sequence (Q8IVH8 whole entry): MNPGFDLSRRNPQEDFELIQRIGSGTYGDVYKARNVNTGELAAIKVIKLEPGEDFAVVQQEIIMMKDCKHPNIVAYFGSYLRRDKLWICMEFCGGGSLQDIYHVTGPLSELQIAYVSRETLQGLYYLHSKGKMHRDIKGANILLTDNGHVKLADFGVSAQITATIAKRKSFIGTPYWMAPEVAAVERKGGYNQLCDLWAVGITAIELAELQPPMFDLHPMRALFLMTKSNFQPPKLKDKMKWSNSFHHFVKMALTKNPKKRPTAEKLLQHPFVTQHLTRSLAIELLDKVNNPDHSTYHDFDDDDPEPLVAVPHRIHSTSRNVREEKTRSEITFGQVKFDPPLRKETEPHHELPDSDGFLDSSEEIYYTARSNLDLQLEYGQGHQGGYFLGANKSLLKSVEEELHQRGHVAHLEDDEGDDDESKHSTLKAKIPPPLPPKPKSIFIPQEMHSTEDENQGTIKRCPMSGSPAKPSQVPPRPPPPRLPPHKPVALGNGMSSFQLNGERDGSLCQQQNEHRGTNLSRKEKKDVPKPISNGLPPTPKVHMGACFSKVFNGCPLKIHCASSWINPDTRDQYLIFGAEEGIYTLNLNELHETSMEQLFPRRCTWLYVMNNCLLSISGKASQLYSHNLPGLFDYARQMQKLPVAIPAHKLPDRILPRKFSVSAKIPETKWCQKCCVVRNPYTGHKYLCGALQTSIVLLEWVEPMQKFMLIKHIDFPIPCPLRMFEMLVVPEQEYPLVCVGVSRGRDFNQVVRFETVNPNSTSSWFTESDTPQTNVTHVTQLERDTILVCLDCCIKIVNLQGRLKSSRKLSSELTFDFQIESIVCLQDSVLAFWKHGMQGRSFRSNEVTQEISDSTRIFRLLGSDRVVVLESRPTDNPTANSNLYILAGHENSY

[3] = target: Serine/threonine-protein kinase PAK 5 (Homo sapiens, UniProt Q9P286)
Serine/threonine-protein kinase PAK 5, sequence (Q9P286 whole entry): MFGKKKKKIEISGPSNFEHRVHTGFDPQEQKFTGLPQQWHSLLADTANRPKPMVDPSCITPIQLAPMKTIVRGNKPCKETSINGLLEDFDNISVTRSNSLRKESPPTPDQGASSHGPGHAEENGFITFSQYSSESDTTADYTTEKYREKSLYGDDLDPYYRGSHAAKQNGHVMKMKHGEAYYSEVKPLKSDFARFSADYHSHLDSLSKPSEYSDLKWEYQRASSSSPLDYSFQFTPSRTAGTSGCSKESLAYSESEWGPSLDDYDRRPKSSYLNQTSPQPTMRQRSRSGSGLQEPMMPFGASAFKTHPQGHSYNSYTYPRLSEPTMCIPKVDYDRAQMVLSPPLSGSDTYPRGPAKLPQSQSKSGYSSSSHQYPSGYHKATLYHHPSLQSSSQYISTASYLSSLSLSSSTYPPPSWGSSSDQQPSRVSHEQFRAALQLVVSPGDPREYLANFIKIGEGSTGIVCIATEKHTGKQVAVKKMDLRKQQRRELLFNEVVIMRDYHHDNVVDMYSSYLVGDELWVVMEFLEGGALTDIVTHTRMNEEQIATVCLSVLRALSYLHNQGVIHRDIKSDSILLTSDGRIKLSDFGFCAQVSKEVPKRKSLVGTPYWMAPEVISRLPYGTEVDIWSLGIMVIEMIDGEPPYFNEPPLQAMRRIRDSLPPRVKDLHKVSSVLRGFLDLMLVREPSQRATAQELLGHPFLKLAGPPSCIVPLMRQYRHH

[4] = target: T3, Serine/threonine-protein kinase 36 (Homo sapiens, UniProt Q9NRP7)
T3 sequence (Q9NRP7 whole entry): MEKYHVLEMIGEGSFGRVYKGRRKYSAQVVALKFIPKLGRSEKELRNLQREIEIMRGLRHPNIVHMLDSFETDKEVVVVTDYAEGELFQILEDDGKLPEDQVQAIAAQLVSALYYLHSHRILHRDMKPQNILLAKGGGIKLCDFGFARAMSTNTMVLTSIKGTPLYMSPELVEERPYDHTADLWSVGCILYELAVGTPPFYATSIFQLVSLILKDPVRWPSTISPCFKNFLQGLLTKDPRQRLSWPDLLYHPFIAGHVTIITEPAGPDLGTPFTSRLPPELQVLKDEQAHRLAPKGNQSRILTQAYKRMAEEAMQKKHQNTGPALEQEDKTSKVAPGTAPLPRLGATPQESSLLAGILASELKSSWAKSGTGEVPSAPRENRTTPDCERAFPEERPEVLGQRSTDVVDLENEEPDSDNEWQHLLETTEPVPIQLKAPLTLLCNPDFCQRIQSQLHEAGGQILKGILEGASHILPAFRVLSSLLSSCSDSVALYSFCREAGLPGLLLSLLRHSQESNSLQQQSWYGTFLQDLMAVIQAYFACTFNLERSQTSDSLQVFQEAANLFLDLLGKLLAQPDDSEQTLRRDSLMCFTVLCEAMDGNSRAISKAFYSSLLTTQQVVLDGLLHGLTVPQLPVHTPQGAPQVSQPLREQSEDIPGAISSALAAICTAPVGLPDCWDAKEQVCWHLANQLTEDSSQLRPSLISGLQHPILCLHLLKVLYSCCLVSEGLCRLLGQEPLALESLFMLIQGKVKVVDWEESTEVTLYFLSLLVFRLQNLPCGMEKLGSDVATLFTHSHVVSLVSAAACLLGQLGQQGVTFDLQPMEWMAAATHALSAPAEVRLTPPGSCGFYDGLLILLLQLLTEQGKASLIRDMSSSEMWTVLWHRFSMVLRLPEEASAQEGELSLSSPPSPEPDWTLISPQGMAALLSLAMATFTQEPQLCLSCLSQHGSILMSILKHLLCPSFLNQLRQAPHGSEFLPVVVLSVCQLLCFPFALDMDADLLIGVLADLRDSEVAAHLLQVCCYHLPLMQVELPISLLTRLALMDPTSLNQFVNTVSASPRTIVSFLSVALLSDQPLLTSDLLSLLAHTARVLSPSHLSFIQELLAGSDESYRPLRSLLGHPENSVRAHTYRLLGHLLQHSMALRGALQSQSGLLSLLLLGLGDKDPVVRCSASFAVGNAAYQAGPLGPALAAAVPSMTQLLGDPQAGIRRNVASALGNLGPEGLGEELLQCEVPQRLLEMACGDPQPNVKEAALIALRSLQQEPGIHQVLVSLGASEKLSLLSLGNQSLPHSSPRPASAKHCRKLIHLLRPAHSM

[5] = target: Tyrosine-protein kinase ABL1 (Homo sapiens, UniProt P00519, T315I)
[6] = target: Serine/threonine-protein kinase pim-2 (Homo sapiens, UniProt Q9P1W9)
Serine/threonine-protein kinase pim-2, sequence (Q9P1W9 whole entry): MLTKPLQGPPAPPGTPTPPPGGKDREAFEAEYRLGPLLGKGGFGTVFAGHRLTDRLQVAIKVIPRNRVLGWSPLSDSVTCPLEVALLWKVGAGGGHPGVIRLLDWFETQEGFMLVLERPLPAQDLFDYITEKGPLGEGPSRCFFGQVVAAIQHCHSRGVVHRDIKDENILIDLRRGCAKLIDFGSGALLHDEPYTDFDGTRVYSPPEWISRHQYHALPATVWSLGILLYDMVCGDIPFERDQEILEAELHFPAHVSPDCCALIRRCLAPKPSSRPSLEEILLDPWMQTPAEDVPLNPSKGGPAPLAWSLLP

Measured: Kd

COCC(=O)NC/C=C/c1ccc2ncnc(Nc3ccc(Oc4ccc(C)nc4)c(C)c3)c2c1 [CP-724714]
> 10 µM: [1] | [2] | [3] | [4] | [5] | [6]

NC(=O)c1ccc(-c2nc(-c3ccc4c(c3)OCO4)c(-c3ccccn3)[nH]2)cc1 [SB-431542]
> 10 µM: [1] | [2] | [3] | [4] | [5] | [6]

Nc1nc(Nc2ccc(S(N)(=O)=O)cc2)nn1C(=O)c1c(F)cccc1F [JNJ-7706621]
> 10 µM: [4] | [6]

CCOc1cc2ncc(C#N)c(Nc3ccc(F)c(Cl)c3)c2cc1NC(=O)/C=C/CN(C)C [PELITINIB]
> 10 µM: [3] | [6]

Oc1ccc(-c2nc(-c3ccncc3)c(-c3ccc(F)cc3)[nH]2)cc1 [SB-202190]
> 10 µM: [1] | [2] | [3] | [5] | [6]
0.79 µM: [4]
